“And” between values parts separate entries of the source, which are not always exact repeats. Identical values can stand only once.
biological target: T1, Human PAK1 (Homo sapiens, UniProt Q13153); test: PAK1 inhibitory activity, ADP-Glo kinase assay; assay type: biochemical; conditions: Human PAK1 25 ng; 10 min preincubation with test compound, 40 min with ATP/substrate mix; room temperature; luminescence; read-out: IC50 (PAK1 inhibitory activity)
T1 construct: purchased Promega V4479
Procedure: The PAK inhibitory activities of the dehydrokawain compounds, mimosine or derivatives thereof and cucurbitacin I were determined. Assay of the PAK1 inhibitory activity was carried out using an ADP-Glo™ kinase assay kit (V4479, Promega, Madison, Wis.). Human PAK1 (10 μL) at a reaction concentration of 25 ng was incubated with 5 μL of the test compounds at the respective concentrations for 10 minutes. At the beginning of the reaction, 2.5×ATP/substrate mix (10 μL) was added and incubated for 40 minutes. The reaction was terminated by adding […]. In addition, 50 μL of Kinase detection reagent was added to cause the conversion of ADP to ATP and the emission reaction of freshly synthesized ATP. After incubation for 30 minutes, the intensity of emission in each well was measured by a Microplate Reader (MTP-880Lab, Corona) for 0.5 seconds as integration time. To the blank well was added all of the ingredients except for the test compounds and enzymes. The procedure was conducted at room temperature all the time. The inhibition rate was determined as the value on the kinase activity of control to which the inhibitor was not added.

T1 sequence (Q13153 whole entry): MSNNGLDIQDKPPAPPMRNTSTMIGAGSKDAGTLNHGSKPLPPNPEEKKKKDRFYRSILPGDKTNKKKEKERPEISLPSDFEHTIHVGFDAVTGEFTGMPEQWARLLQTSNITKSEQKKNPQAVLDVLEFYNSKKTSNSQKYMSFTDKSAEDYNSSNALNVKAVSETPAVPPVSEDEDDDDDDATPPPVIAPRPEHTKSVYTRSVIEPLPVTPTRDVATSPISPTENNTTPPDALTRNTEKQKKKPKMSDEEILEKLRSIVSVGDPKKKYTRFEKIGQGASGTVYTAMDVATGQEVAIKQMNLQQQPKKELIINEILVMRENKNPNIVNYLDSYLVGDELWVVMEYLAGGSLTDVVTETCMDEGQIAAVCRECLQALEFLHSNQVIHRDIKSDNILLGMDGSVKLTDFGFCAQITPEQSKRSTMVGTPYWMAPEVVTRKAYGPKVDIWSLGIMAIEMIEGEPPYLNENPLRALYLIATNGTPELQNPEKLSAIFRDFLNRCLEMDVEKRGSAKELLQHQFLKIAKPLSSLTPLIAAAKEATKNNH

IC50 | SMILES
37 µM | N[C@@H](Cn1ccc(=O)c(O)c1)C(=O)O [Mimosine, β-[N-(3-hydroxy-4-pyridone)]-α-aminopropionic acid]
2.3 µM | N[C@@H](Cn1ccc(=O)c(O)c1)C(=O)N[C@@H](Cc1ccccc1)C(=O)N[C@@H](Cc1ccc(O)cc1)C(=O)N[C@@H](Cc1ccc(O)cc1)C(=O)O [MFYY]
30 µM | N[C@H](CO)Cn1ccc(=O)c(O)c1 [Mimosinol, mimosinol]
340 µM | O=c1c(O)c(-c2ccc(O)c(O)c2)oc2cc(O)cc(O)c12 [Quercetin, quercetin, reference compound]
15 µM | Oc1ccc(C=Cc2cc(O)cc(O)c2)cc1 [Resveratrol, resveratrol, reference compound]

The remaining lines, values behind:

SMILES | IC50
COc1cc(/C=C/c2ccc(OC)c(OC)c2)oc(=O)c1 [H1, 6-(3,4-dimethoxystyryl)-4-methoxy-2H-pyran-2-one] | 1.6 µM
COc1cc(CCc2ccccc2)oc(=O)c1 [DDK, dihydro-5,6-dehydrokawain] | 10 µM and 10.3 µM
N[C@@H](Cn1ccc(=O)c(O)c1)C(=O)N[C@@H](Cc1ccccc1)C(=O)N[C@@H](Cc1c[nH]c2ccccc12)C(=O)N[C@@H](Cc1ccc(O)cc1)C(=O)O [MFWY] | 0.6 µM
COc1cc(CCc2ccc(O)c(O)c2)oc(=O)c1 [H3, 6-(3,4-dihydroxyphenethyl)-4-methoxy-2H-pyran-2-one] | 2 µM
N[C@@H](Cn1ccc(=O)c(O)c1)C(=O)N[C@@H](Cc1ccccc1)C(=O)N[C@@H](Cc1ccccc1)C(=O)N[C@@H](Cc1ccc(O)cc1)C(=O)O [MFFY] | 0.13 µM
COc1cc(CCc2ccc(OC)c(OC)c2)oc(=O)c1 [H2, 6-(3,4-dimethoxyphenethyl)-4-methoxy-2H-pyran-2-one] | 1.2 µM
COc1cc(/C=C/c2ccccc2)oc(=O)c1 [DK, 5,6-dehydrokawain] | 17 µM and 17.1 µM

same assay, conditions: IC50 (PAK1 inhibitory activity), Human PAK1 25 ng; 10 min preincubation with test compound, 40 min with ATP/substrate mix; room temperature; luminescence

SMILES | IC50
CC(C)(O)/C=C/C(=O)[C@](C)(O)[C@H]1[C@H](O)C[C@@]2(C)[C@@H]3CC=C4C(C=C(O)C(=O)C4(C)C)[C@]3(C)C(=O)C[C@]12C (stereo partly shown) [Cucurbitacin I, cucurbitacin I] | 19 µM
